Counter-ions that a name gives are not always drawn.
These molecules were tested against T1, menin and MLL (menin, Flag tagged; biotinylated MLL1 peptide 1-46aa) (Homo sapiens, UniProt O00255) (assay: biochemical). Conditions: not given.
T1 sequence (O00255 1-610): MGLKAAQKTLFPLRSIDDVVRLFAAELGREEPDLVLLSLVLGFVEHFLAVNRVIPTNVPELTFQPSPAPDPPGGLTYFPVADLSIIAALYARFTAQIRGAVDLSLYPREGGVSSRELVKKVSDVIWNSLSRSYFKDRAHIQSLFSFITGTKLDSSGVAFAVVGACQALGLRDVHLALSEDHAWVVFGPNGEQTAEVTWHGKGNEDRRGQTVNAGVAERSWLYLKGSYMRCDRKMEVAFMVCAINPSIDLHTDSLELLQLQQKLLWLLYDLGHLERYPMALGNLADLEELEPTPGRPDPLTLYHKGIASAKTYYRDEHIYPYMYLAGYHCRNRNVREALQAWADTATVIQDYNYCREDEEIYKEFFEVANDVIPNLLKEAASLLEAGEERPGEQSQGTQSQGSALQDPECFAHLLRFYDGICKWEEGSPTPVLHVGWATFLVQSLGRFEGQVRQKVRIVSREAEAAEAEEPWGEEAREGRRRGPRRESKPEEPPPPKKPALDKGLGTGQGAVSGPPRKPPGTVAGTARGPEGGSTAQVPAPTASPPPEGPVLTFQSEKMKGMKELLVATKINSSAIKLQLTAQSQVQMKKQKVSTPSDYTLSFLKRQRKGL
`COc1nc(N(C)[C@H]2C[C@@H](NCc3ccc(-c4cc(OC)c(OC)cn4)cc3)C[C@H]2O)c2cc(CC(F)(F)F)sc2n1` [Example 116, (1R,2S,4R)-4-({[4-(4,5-dimethoxypyridin-2-yl)phenyl]methyl}amino)-2-{[2-methoxy-6-(2,2,2-trifluoroethyl)thieno[2,3-d]pyrimidin-4yl](methyl)amino}cyclopentan-1-ol hydrochloride] gave an IC50 of 1 nM. Work on `COCCOc1nnc(-c2ccc(CN[C@H]3C[C@@H](O)[C@@H](N(C)c4nc(OC)nc5sc(CC(F)(F)F)cc45)C3)cc2)cc1OC` [Example 109, (1R,2S,4R)-4-[({4-[5-methoxy-6-(2-methoxyethoxy)pyridazin-3-yl]phenyl}methyl)amino]-2-{[2-methoxy-6-(2,2,2-trifluoroethyl)thieno[2,3-d]pyrimidin-4-yl](methyl)amino}cyclopentan-1-ol hydrochloride] yielded an IC50 of 0.7 nM. `CN(c1ncnc2sc(CC(F)(F)F)cc12)[C@H]1C[C@@H](NCc2ccc(-n3cnc4ccccc43)cc2)C[C@H]1O` [Example 79, (1R,2S,4R)-4-({[4-(1H-benzimidazol-yl)phenyl]methyl}amino)-2-{methyl[6-(2,2,2-trifluoroethyl)thieno[2,3-d]pyrimidin-4-yl]amino}cyclopentan-1-ol hydrochloride] was tested, and the IC50 was 3.5 nM.

Same assay, conditions: IC50, binding inhibitory activity between menin and MLL, AlphaLISA; 1 nM menin, 10 nM biotinylated MLL1 peptide
In the case of `COc1cc(-c2ccc(CN[C@H]3C[C@@H](O)[C@@H](N(C)c4ncncc4Oc4ccc(F)cc4-c4cncnc4C(C)C)C3)cc2)nnc1OC` [Example 100, (1R,2S,4R)-4-({[4-(5,6-dimethoxypyridazin-3-yl)phenyl]methyl}amino)-2-[(5-{4-fluoro-2-[4-(propan-2-yl)pyrimidin-5-yl]phenoxy}pyrimidin-4-yl)(methyl)amino]cyclopentan-1-ol hydrochloride], the IC50 is reported as 2.5 nM. In the case of `COc1ncc(-c2ccc(CN[C@H]3CC[C@@H](N(C)c4ncnc5sc(CC(F)(F)F)cc45)C3)cc2)s1` [Example 130, (1R,3S)—N^3-{[4-(2-methoxy-1,3-thiazol-5-yl)phenyl]methyl}-N^1-methyl-N^1-[6-(2,2,2-trifluoroethyl)thieno[2,3-d]pyrimidin-4-yl]cyclopentane-1,3-diamine Hydrochloride], the IC50 is reported as 6.5 nM. `COc1nc(N(C)[C@H]2C[C@@H](NCc3ccc(-c4cc(OC)c(OC5CCN(S(C)(=O)=O)CC5)nn4)cc3)C[C@H]2O)c2cc(CC(F)(F)F)sc2n1` [Example 118, (1R,2S,4R)-4-({[4-(6-{[1-(methanesulfonyl)piperidin-4-yl]oxy}-5-methoxypyridazin-3-yl)phenyl]methyl}amino)-2-{[2-methoxy-6-(2,2,2-trifluoroethyl)thieno[2,3-d]pyrimidin-4-yl(methyl)amino}cyclopentan-1-ol hydrochloride] gave an IC50 of 1 nM. With `C=CC(=O)N(C)c1nnc(-c2ccc(CN[C@H]3C[C@@H](O)[C@@H](N(C)c4nc(OC)nc5sc(CC(F)(F)F)cc45)C3)cc2)cc1OC` [Example 113, N-{6-[4-({[(1R,3R,4S)-3-hydroxy-4-{[2-methoxy-6(2,2,2-trifluoroethyl)thieno[2,3-d]pyrimidin-4-yl](methyl)amino}cyclopentyl]amino}methyl)phenyl]-4-methoxypyridazin-3-yl}-N-methylprop-2-enamide hydrochloride] the IC50 was 29.2 nM. `COc1nc(N(C)[C@H]2C[C@@H](NCc3cccc(Nc4cccnc4)c3)C[C@H]2O)c2cc(CC(F)(F)F)sc2n1` [Example 120, (1R,2S,4R)-2-{[2-methoxy-6-(2,2,2-trifluoroethyl)thieno[2,3-d]pyrimidin-4-yl](methyl)amino}-4-[({3-[(pyridin-3-yl)amino]phenyl}methyl)amino]cyclopentan-1-ol hydrochloride] showed an IC50 of 5.8 nM. Work on `COc1cc(-c2ccc(CN[C@H]3C[C@@H](O)[C@@H](N(C)c4ncnc5sc(CC(F)(F)F)cc45)C3)cc2F)cnc1F` [Example 74, (1R,2S,4R)-4-({[3-fluoro-4-(6-fluoro-5-methoxypyridin-3-yl)phenyl]methyl}amino)-2-{methyl[6-(2,2,2-trifluoroethyl)thieno[2,3-d]pyrimidin-4-yl]amino}cyclopentan-1-ol hydrochloride] yielded an IC50 of 6.5 nM. With `COc1nc(N(C)[C@H]2C[C@@H](NCc3ccc(-c4cnc(F)c(OC)c4)cc3)C[C@H]2O)c2cc(CC(F)(F)F)sc2n1` [Example 91, (1R,2S,4R)-4-({[4-(6-fluoro-5-methoxypyridin-3yl)phenyl]methyl}amino)-2{[2-methoxy6-(2,2,2-trifluoroethyl)thieno[2,3-d]pyrimidin-4-yl](methyl)amino}cyclopentan-1-ol hydrochloride] the IC50 was 1.3 nM. `CNc1nc(N(C)[C@H]2C[C@@H](NCc3ccc(-c4cnn(S(C)(=O)=O)c4)cc3)C[C@H]2O)c2cc(CC(F)(F)F)sc2n1` [Example 62, (1R,2S,4R)-4[({4[1-(methanesulfonyl)-1H-pyrazol-4-yl]phenyl}methyl)amino]-2-{methyl[2-(methylamino)-6-(2,2,2-trifluoroethyl)thieno[2,3-d]pyrimidin-4-yl]amino}cyclopentan-1-ol hydrochloride] gave an IC50 of 2 nM. With `COc1cc(-c2ccc(CN[C@H]3C[C@@H](O)[C@@H](N(C)c4ncnc5sc(CC(F)(F)F)cc45)C3)cc2)cnc1C(F)(F)F` [Example 88, (1R,2S,4R)-4-[({4-[5-methoxy-6-(trifluoromethyl)pyridin-3-yl]phenyl}methyl)amino]-2-{methyl[6-(2,2,2-trifluoroethyl)thieno[2,3-d]pyrimidin-4-yl]amino}cyclopentan-1-ol hydrochloride] the IC50 was 27.8 nM. For `CN(c1ncnc2sc(CC(F)(F)F)cc12)[C@H]1C[C@@H](NCc2cccc(-c3cccnc3)c2)C[C@H]1O` [Example 124, (1R,2S,4R)-2-{methyl[6-(2,2,2-trifluoroethyl)thieno[2,3-d]pyrimidin-4-yl]amino}-4-({[3-(pyridin-3-yl)phenyl]methyl}amino)cyclopentan-1-ol hydrochloride], the IC50 was 182 nM. `CNc1nc(N(C)[C@H]2C[C@@H](NCc3ccc(-c4cc(F)cc(OC)c4)cc3)C[C@H]2O)c2cc(CC(F)(F)F)sc2n1` [Example 75, (1R,2S,4R)-4-{[(3′-fluoro-5′-methoxy[1,1′-biphenyl]-4-yl)methyl}amino}-2-{methyl[2-(methylamino)-6-(2,2,2-trifluoroethyl)thieno[2,3-d]pyrimidin-4-yl]amino}cyclopentan-1ol hydrochloride] was tested, and the IC50 was 17.2 nM.

Same assay, conditions: cell free IC50 (nM), 1 nM menin, 10 nM biotinylated MLL1 peptide, AlphaLISA
`FC(F)(F)Cc1cc2c(N[C@@H]3CCC[C@H](NCc4ccc(-c5ncco5)cc4)C3)ncnc2s1` [Example 35, (1S,3R)-N^1-{[4-(1,3-oxazol-2-yl)phenyl]methyl}-N^3-[6-(2,2,2-trifluoroethyl)thieno[2,3-d]pyrimidin-4-yl]cyclohexane-1,3-diamine hydrochloride] was tested, and the IC50 was 1220 nM. `CN(c1ncnc2sc(CC(F)(F)F)cc12)[C@@H]1CC[C@H](NCc2cncs2)C1` [Example 36, (1R,3S)-N^1-methyl-N^3-[(1,3-thiazol-5-yl)methyl]-N^1-[6-(2,2,2-trifluoroethyl)thieno[2,3-d]pyrimidin-4-yl]cyclopentane-1,3-diamine hydrochloride] showed an IC50 of 636 nM. `Cc1ncc(-c2ccc(CN[C@H]3CC[C@@H](N(C)c4ncnc5sc(CC(F)(F)F)cc45)C3)cc2)cc1OC(F)F` [Example 58, (1R,3S)-N^3-({4-[5-(difluoromethoxy)-6-methylpyridin-3-yl]phenyl}methyl)-N^1-methyl-N^1-[6-(2,2,2-trifluoroethyl)thieno[2,3-d]pyrimidin-4-yl]cyclopentane-1,3-diamine hydrochloride] was tested, and the IC50 was 15.2 nM. Work on `CN(c1ncnc2sc(CC(F)(F)F)cc12)[C@@H]1CC[C@H](NCC2CCCCC2)C1` [Example 28, (1R,3S)-N^3-(cyclohexylmethyl)-N^1-methyl-N^1-[6-(2,2,2-trifluoroethyl)thieno[2,3-d]pyrimidin-4-yl]cyclopentane-1,3-diamine hydrochloride] yielded an IC50 of 1160 nM. `CNc1nc(N(C)[C@H]2C[C@@H](NCc3ccc(-n4ccnc4)cc3)C[C@H]2O)c2cc(CC(F)(F)F)sc2n1` [Example 61, (1R,2S,4R)-4-({[4-(1H-imidazol-1-yl)phenyl]methyl}amino)-2-{methyl[2-(methylamino)-6-(2,2,2-trifluoroethyl)thieno[2,3-d]pyrimidin-4-yl]amino}cyclopentan-1-ol hydrochloride] gave an IC50 of 1.9 nM. `CN(c1ncnc2sc(CC(F)(F)F)cc12)[C@@H]1CC[C@H](NCc2ccc(C(=O)NCc3cnn(C)c3)cc2)C1` [Example 49, N-[(1-methyl-1H-pyrazol-4-yl)methyl]-4-({[(1S,3R)-3-{methyl[6-(2,2,2-trifluoroethyl)thieno[2,3-d]pyrimidin-4-yl]amino}cyclopentyl]amino}methyl)benzamide hydrochloride] gave an IC50 of 24 nM. `CN(c1ncnc2sc(CC(F)(F)F)cc12)[C@@H]1CC[C@H](NCc2ccc(-c3ccc(=O)[nH]c3)cc2)C1` [Example 11, 5-[4-({[(1S,3R)-3-{methyl[6-(2,2,2-trifluoroethyl)thieno[2,3-d]pyrimidin-4-yl]amino}cyclopentyl]amino}methyl)phenyl]pyridin-2(1H)-one Hydrochloride] gave an IC50 of 63.9 nM.
